From patent US9896479B2, “Functionalized naphthalene fluorophores” (Kay M. Brummond, priority 2012, dated 2018)
Where two headings read alike, the source gives them in different places.

Assays:
[1] = Absorption spectra (absorption maxima) of dyes in organic solvents; assay type: physicochemical
Description: (§1) All commercially available compounds were purchased from Aldrich Chemical Co., GFS Chemicals, Strem Chemicals, Acros Organics, Alfa Aesar, and Advanced Chemtech and used as received, except for p-toluenesulfonyl hydrazide, which was recrystallized from methanol. Amines were purchased from Aldrich Chemical Co. as purified by redistillation and used as received. Tetrahydrofuran (THF), diethyl ether (Et2O), and dichloromethane (CH2Cl2) were purified by passing through alumina using the Sol-Tek ST-002 solvent purification system. Acetonitrile (MeCN) and toluene were freshly distilled from CaH2 prior to use. Benzene was freshly distilled from sodium/benzophenone prior to use Anhydrous N,N-dimethylformamide (DMF), 1,2-dichloroethane (DCE), and 1,4-dioxane were purchased and used as received from Aldrich Chemical Co. Purification of the compounds by flash column chromatography was performed using silica gel (32-63 μm particle size, 60 Å pore size) purchased from Silicycle, or by using a Biotage Horizon flash purification system with either Biotage SNAP KP-SIL silica cartridges, or Teledyne ISCO RediSep Rf normal phase disposable flash columns (40-60 micron). TLC analyses were performed on EMD Chemicals Silica Gel 60 F254 glass plates (250 μm thickness). ^1H NMR and ^13C NMR spectra were recorded on Bruker Avance 300 MHz, 500 MHz, or 600 MHz spectrometers. Spectra were referenced to residual chloroform (7.27 ppm, ^1H, 77.0 ppm, ^13C) or 1,2-dichlorobenzene (6.93 ppm, ^1H, 127.19 ppm, ^13C). Chemical shifts are reported in ppm, multiplicities are indicated by s (singlet), d (doublet), t (triplet), q (quartet), p (pentet), and m (multiplet). Coupling constants, J, are reported in hertz (Hz). All NMR spectra were obtained at room temperature unless otherwise specified. IR spectra were obtained using a Nicolet Avatar E.S.P. 360 FT-IR. EI mass spectroscopy was performed on a Waters Micromass GCT high resolution mass spectrometer. ES mass spectroscopy was performed on a Waters Q-TOF Ultima API, Micromass UK Limited high resolution mass spectrometer. GC mass spectrometry was performed on a Shimadzu GCMS-17A/QP5050A spectrometer. All microwave-mediated reactions were carried out using a Biotage Initiator™ Exp microwave synthesizer. The microwave parameters were set to variable power, constant temperature, with the fixed hold time set to on. The microwave reactions were carried out in 0.2-0.5 mL, 0.5-2 mL, 2-5 mL, or 10-20 mL Biotage microwave vials. […] Absorption and fluorescence spectra were recorded on Lambda 9 spectrophotometer (Perkin Elmer) and FluoroMax-3 spectrofluorometer (Jobin Yvon, Horiba), respectively. Fluorescence quantum yields were determined by taking Prodan in DMSO (quantum yield, QY=91%) as a reference. The quantum yield values were corrected for the solvent refractive index. For spectroscopic measurements, 10^−5 M solutions of dyes in 10 mm quartz-cuvettes were used (excitation wavelength was 334 nm; slits open to 2 nm).

[2] = Fluorescence quantum yield vs Prodan in DMSO as reference; assay type: physicochemical; conditions: for QY (fluorescence quantum yield vs Prodan in DMSO (91%)): excitation 334 nm, 10^-5 M
Description: as §1

[3] = cited from earlier work
[4] = Prodan in DMSO taken as reference; cited from earlier work

SMILES: CCC(=O)c1ccc2cc(N(C)C)ccc2c1 [Prodan, reference compound]
- λabs (maximum absorption) ([1]; 1,4-Dioxane): 346 nm
- λabs (maximum absorption) ([1]; Acetonitrile): 350 nm
- λabs (maximum absorption) ([1]; CH2Cl2): 355 nm
- λabs (maximum absorption) ([1]; DMSO): 357 nm
- λabs (maximum absorption) ([1]; EtOH): 362 nm
- λabs (maximum absorption) ([1]; THF): 348 nm
- λabs (maximum absorption) ([1]; Toluene): 346 nm
- λabs (maximum absorption) ([1]; n-Hexane): 340 nm
- QY (fluorescence quantum yield vs Prodan in DMSO (91%)) ([2]; 1,4-Dioxane): 75%
- QY (fluorescence quantum yield vs Prodan in DMSO (91%)) ([2]; Acetonitrile): 80%
- QY (fluorescence quantum yield vs Prodan in DMSO (91%)) ([2]; CH2Cl2): 98%
- QY (fluorescence quantum yield vs Prodan in DMSO (91%)) ([2]; DMSO): 91%
- QY (fluorescence quantum yield vs Prodan in DMSO (91%)) ([2]; EtOH): 71%
- QY (fluorescence quantum yield vs Prodan in DMSO (91%)) ([2]; THF): 78%
- QY (fluorescence quantum yield vs Prodan in DMSO (91%)) ([2]; Toluene): 56%
- QY (fluorescence quantum yield) ([2]; n-Hexane): 2.0%
- Bathochromic shift ([3]; cyclohexane to water (background)): 124 nm
- fluorescent emission ([3]; in cyclohexane (background)): 410 nm
- fluorescent emission ([3]; in water (background)): 534 nm
- quantum yield, QY (reference value) [4]: 91%
